Data: article PMC6615261, “Repurposing Azithromycin and Rifampicin Against Gram-Negative Pathogens by Combination With Peptidomimetics” (Frontiers in Cellular and Infection Microbiology, 2019)
Read-outs that look alike come from different tables or passages of the source.

Columns and labels:
P. aeruginosa ATCC 27853 [1] = assay: MIC by broth microdilution; assay type: cell-based, Pseudomonas aeruginosa
In short: (§1)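 MICs were determined by CLSI broth microdilution. Combinations used fixed peptidomimetic:antibiotic ratios of 2:1 with rifampicin and 1:4 with azithromycin, and potentiation of other antibiotics was tested on COMPAN1F panels. MBCs came from OD600 growth curves over 24 h at 37°C, followed by plating of wells without growth onto MHA.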

K. pneumoniae ST258 [2] = assay: MIC by broth microdilution; assay type: cell-based, Klebsiella pneumoniae
In short: as §1

E. coli ST131 [3] = assay: MIC by broth microdilution; assay type: cell-based, Escherichia coli
In short: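 Broth microdilution per CLSI; combos at fixed peptidomimetic:antibiotic ratios (2:1 rifampicin, 1:4 azithromycin) chosen from checkerboards. Potentiation panels: standard antibiotic dilution plates plus peptidomimetic added immediately pre-inoculation; MIC read as usual.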

[4] = MTS/PMS cell viability assay; assay type: cell-based; settings: human, HepG2 hepatocytes, 1 h exposure, read-out: Cytotoxicity HepG2 EC50 ± SD
In short: (§2)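 NIH 3T3 and HepG2 cells at 80–90% confluence exposed 1 h to compound in serum-free medium, then MTS/PMS added for 1 h at 37 °C; absorbance read at 492 nm. Viability normalized to medium (0% death) and 0.2% SDS (100% death); EC50 from Hill fit constrained 0–100%, technical triplicates.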

NIH 3T3 and HepG2 cells = assay: Effect on viability of mammalian cells (both cell lines); assay type: cell-based, mouse and human
Procedure: NIH 3T3 and HepG2 cells (both from ATCC, Manassas, VA, USA) were cultured in flat-bottomed 96-well MicroWell™ plates (NUNC, Roskilde, Denmark) at seeding densities of ~23,000 and ~22,000 cells/well, respectively, and then cultured for 22–24 h under standard culturing conditions (37°C, 5% CO2, humidified air) to reach 80–90% confluence. NIH 3T3 were cultured in Dulbecco's modified Eagle's medium (DMEM) supplemented with 10% (v/v) newborn-calf serum (NCS) (Gibco, Paisly, UK), while HepG2 were cultured in Eagle's minimum essential medium (EMEM) supplemented with 10% (v/v) fetal bovine serum (FBS, Gibco, Paisly, UK), sodium pyruvate (1 mM), and non-essential amino acids (1%, v/v). Both culturing media were further supplemented with penicillin (100 U/mL), streptomycin (100 μg/mL), and L-glutamine (2 mM).
Effect on cell viability was determined in NIH 3T3 fibroblasts and HepG2 hepatocytes by using the MTS/PMS assay measuring metabolic activity. Briefly, the adhered cells were washed with 37°C Hanks' balanced salt solution (HBSS from Sigma-Aldrich, St. Louis, MO, USA), containing 10 mM HEPES (AppliChem, Darmstadt, Germany), and adjusted to pH 7.4, and were then exposed for 1 h to 100 μL of test compound(s) dissolved in the appropriate culturing medium without serum for each cell line. After exposure the cells were washed with HBSS containing 10 mM HEPES (pH 7.4) and 100 μL of an MTS/PMS solution, consisting of 240 μg/mL MTS (Promega, Madison, WI, USA) and 2.4 μg/mL PMS (SigmaAldrich, Buchs, Switzerland) in HBSS, was added to the cells, which then were incubated for 1 h at 37°C with horizontal shaking under light protection. Absorbance was measured at 492 nm by using a POLARstar OPTIMA plate reader (BMG Labtech, Offenburg, Germany). The relative viability was calculated according to Equation (1) with absorbance values obtained after incubation of cells with test compound; incubation with SDS (0.2%, w/v in medium) defined 100% cell death (Abspos), while the absorbance of cells incubated with medium defined 0% cell death (Absneg).
(1) Relative viability(%)=(Abssample-Abspos)/(Absneg-Abspos)×100%
EC50 values were calculated by using GraphPad Prism 7 (GraphPad Software, La Jolla, CA, USA) via fitting of the relative cell viability to the concentration of the test compound by using Equation (2):
(2) Relative viability(%)= Top-Bottom/1+10^(LogIC50-Log[peptidomimetic]) ×Hill slope
With top and bottom representing the mean highest and lowest observed values, respectively. The Hill slope represents a factor for the steepness of the linear part of the curve. […] The selectivity index was calculated as the average effect on cell viability (EC50 values for HepG2 and NIH 3T3 cells) divided by the MIC.

K. pneumoniae ST258 [5] = assay: Screening of peptidomimetic-antibiotic combinations (growth / growth inhibition); assay type: cell-based, Klebsiella pneumoniae; set-up: key to Growth in combination with RIF / Growth in combination with AZM: Growth (+); growth inhibition (–)
E. coli ST131 [6] = test system: E. coli ST131
In short: (§3)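 Two-dimensional checkerboard broth microdilution in MHB II, with twofold dilutions of peptidomimetic and antibiotic on crossed axes and 18–20 h incubation per CLSI. FICI = MICA(A+B)/MICA(alone) + MICB(A+B)/MICB(alone); ≤0.5 is interpreted as synergy.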

P. aeruginosa ATCC 27853 [7] = test system: P. aeruginosa ATCC 27853
In short: as §3

K. pneumoniae ST258 [8] = test system: K. pneumoniae ST258
In short: as §3

MDR E. coli ST131 = assay: Screening of peptidomimetic-antibiotic combinations (growth / growth inhibition); assay type: cell-based, Escherichia coli; set-up: key to Growth in combination with RIF / Growth in combination with AZM: Growth (+); growth inhibition (–)
NIH 3T3 cells = assay: MTS/PMS cell viability assay; assay type: cell-based, mouse; settings: 1 h exposure, read-out: Cytotoxicity NIH 3T3 EC50 ± SD
In short: as §2

[9] = MTS/PMS cell viability assay; assay type: cell-based, mouse; settings: mouse, NIH 3T3 fibroblasts, 1 h exposure, read-out: Cytotoxicity NIH 3T3 EC50 ± SD
In short: as §2

[10] = average of EC50 (HepG2, NIH 3T3) divided by MIC
[11] = peptidomimetic 0.5 μM + azithromycin 1 μg/mL
[12] = peptidomimetic 0.5 μM + rifampicin 0.5 μg/mL
[13] = MIC of azithromycin combined with the labelled peptidomimetic
[14] = MIC of rifampicin combined with the labelled peptidomimetic

MIC P. aeruginosa ATCC 27853 (P. aeruginosa ATCC 27853 [1]; peptidomimetic alone): 16 µM
MIC K. pneumoniae ST258 (K. pneumoniae ST258 [2]; peptidomimetic alone): 16 µM
MIC E. coli ST131 (E. coli ST131 [3]; peptidomimetic alone): 2 µM
Antibiotic MIC in combination (AZM) (E. coli ST131 [6]; [13]): 0.5 µg/mL
Antibiotic MIC in combination (RIF) (E. coli ST131 [6]; [14]): 0.13 µg/mL
Peptidomimetic MIC alone (E. coli ST131 [6]; checkerboard): 2 µM
Peptidomimetic MIC in combination (E. coli ST131 [6]; combined with AZM): 0.5 µM
Peptidomimetic MIC in combination (E. coli ST131 [6]; combined with RIF): 0.5 µM
Antibiotic MIC in combination (AZM) (P. aeruginosa ATCC 27853 [7]; P. aeruginosa ATCC 27853, MIC of azithromycin combined with the labelled peptidomimetic): 0.5 µg/mL
Antibiotic MIC in combination (RIF) (P. aeruginosa ATCC 27853 [7]; P. aeruginosa ATCC 27853, MIC of rifampicin combined with the labelled peptidomimetic): 0.06 µg/mL
Peptidomimetic MIC alone (P. aeruginosa ATCC 27853 [7]; P. aeruginosa ATCC 27853, checkerboard): 16 µM
Peptidomimetic MIC in combination (P. aeruginosa ATCC 27853 [7]; P. aeruginosa ATCC 27853, combined with AZM): 2 µM
Peptidomimetic MIC in combination (P. aeruginosa ATCC 27853 [7]; P. aeruginosa ATCC 27853, combined with RIF): 4 µM
Reduction of the MIC of azithromycin (P. aeruginosa ATCC 27853 [7]; P. aeruginosa, sub-MIC concentrations of peptidomimetic): 32- to 512 fold
Antibiotic MIC in combination (AZM) (K. pneumoniae ST258 [8]; [13]): 4 µg/mL
Antibiotic MIC in combination (RIF) (K. pneumoniae ST258 [8]; [14]): 0.5 µg/mL
Peptidomimetic MIC alone (K. pneumoniae ST258 [8]; checkerboard): 16 µM
Peptidomimetic MIC in combination (K. pneumoniae ST258 [8]; combined with AZM): 2 µM
Peptidomimetic MIC in combination (K. pneumoniae ST258 [8]; combined with RIF): 1 µM
SMILES: COCCOCCOCC(=O)N[C@@H](CCCCN)C(=O)N(CCC(=O)N[C@@H](CCCCNC(=N)N)C(=O)N(CCC(=O)N[C@@H](CCCCN)C(=O)N(CCC(=O)N[C@@H](CCCCNC(=N)N)C(=O)N(CCC(=O)N[C@@H](CCCCN)C(=O)N(CCC(=O)N[C@@H](CCCCNC(=N)N)C(=O)N(CCC(N)=O)[C@@H](C)c1ccccc1)[C@@H](C)c1ccccc1)[C@@H](C)c1ccccc1)[C@@H](C)c1ccccc1)[C@@H](C)c1ccccc1)[C@@H](C)c1ccccc1 [Peptidomimetic 28, TODA-(Lys-βNspe-hArg-βNspe)3-NH2]
Selectivity Index (SI) P. aeruginosa ATCC 27853 (P. aeruginosa ATCC 27853 [1]; [10]): (10)
Selectivity Index (SI) K. pneumoniae ST258 (K. pneumoniae ST258 [2]; [10]): (10)
Selectivity Index (SI) E. coli ST131 (E. coli ST131 [3]; [10]): (84)
EC50 at 1 h [4]: 118 ± 2.05 µM
EC50 (NIH 3T3 and HepG2 cells): > 100 µM
Growth in combination with AZM (K. pneumoniae ST258 [5]; [11]): +
Growth in combination with RIF (K. pneumoniae ST258 [5]; [12]): +
Growth in combination with AZM (MDR E. coli ST131; [11]): –
Growth in combination with RIF (MDR E. coli ST131; [12]): –
EC50 (NIH 3T3 cells): 218 ± 18.1 µM
EC50 at 1 h [9]: ~218 µM
